# Tested on: WM-266-4 xenograft tumors
# Test: WM-266-4 human melanoma xenograft model
# Format: in vivo
# Settings: WM-266-4 xenograft tumors in female nude mice, staged at 112±6 mg; MEK compound 10 mg/kg PO qd x 14 (AM); rapamycin 5 mg/kg IP qd x 14 (PM); single agents or combination
# Method: For subcutaneous or intradermal tumors, the mean tumor weight of each animal in the respective control and treatment groups was determined twice weekly during the study. Tumor weight (TW) was determined by measuring perpendicular diameters with a caliper, using the following formula: tumor weight (mg)=[tumor volume=length (mm)×width^2 (mm^2)]/2.
# Percent inhibition of tumor growth (TGI) is determined with the following formula:
# [formula] where X0=average TW of all tumors on group day; Xf=TW of treated group on Day f; Yf=TW of vehicle control group on Day f
# [formula] TGI is calculated individually for each tumor to obtain a mean±SEM value for each experimental group. Statistical significance is determined using the 2-tailed Student's t-test (significance defined as P<0.05).
# The WM-266-4 human melanoma cell line is PTEN-deficient, and harbors a heterozygous activating mutation in the gene encoding B-Raf. Therefore, the ability of a MEK inhibitor administered as monotherapy, and in combination with the mTOR inhibitor rapamycin, was examined to inhibit the growth of WM-266-4 xenograft tumors in nude mice.
# Tumors were established in female nude mice and staged when the tumors reached 112±6 mg. […]
compound,measurement,value
"CO[C@H]1C[C@@H]2CC[C@@H](C)[C@@](O)(O2)C(=O)C(=O)N2CCCC[C@H]2C(=O)O[C@H]([C@H](C)C[C@@H]2CC[C@@H](O)[C@H](OC)C2)CC(=O)[C@H](C)/C=C(\C)[C@@H](O)[C@@H](OC)C(=O)[C@H](C)C[C@H](C)/C=C/C=C/C=C/1C [Rapamycin, rapamycin]","TGI (%), tumor growth inhibition",60%

# — patent US7999006B2, “Methods of using MEK inhibitors” (Exelixis, Inc., priority 2006, dated 2011)
